The test system of data set [1] is H441. The data set is described as follows: MTS tetrazolium salt cytotoxicity assay. It counts as cell-based, human. The note with it: different test concentrations / various dosages, 12 hrs, Fig. 8 and Fig. 12. The text has this: In order to determine whether the water-soluble extract obtained from the plant of Solanum genus according to this invention has anti-cancer activity, the principal cancer cells of Hep3B, H441, and MCF-7 were used as analytic targets, in which Hep3B and H441 were purchased from American Type Culture Collection (ATCC, P.O. Box 1549, Manassas, VA 20108 USA), and MCF-7 was purchased from Food Industry Research and Development Institute (331 Shih-Pin Road, Hsinchu, 300 Taiwan R.O.C.).
Hep3B was incubated in Dulbecco's Modified Eagle's medium (DMEM), while H441 and MCF-7 were incubated in RPMI-1640, both of the media containing 10% fetal bovine serum and 40 mg/L gentamycin.
The cytotoxicity of cancer cells was determined using tetrazolium salt assay (MTS, Mosmann. T., 1983, Immmunol. Meth., 65, 55-63), which was conducted for the colorimetric determination of cell viability according to the manufacturer's procedures (CellTiter 96™ AQ, Promega, Madison, USA).
Cells were seeded at 1x10^4 cells/well in a 96-well plate and incubated in 5% CO2 incubator at 37°C for at least 16 hrs. […] Upon completion of the reaction, absorbency in each well was determined at 490 nm by using ELISA reader 312e, Bio-TEK. Each value was expressed as means ± SD from three experiments.
Cytotoxicity was determined by MTS tetrazolium salt assay disclosed in Pharmacological assay 1. […]

A short description of data set [2]: Dissolution in water (applicant's observations). It counts as physicochemical. The conditions noted are these: for direct dissolution in water: compounds purified by HPLC from the water-soluble extract; for concentration at which precipitated: in water after being first dissolved in DMSO; for dissolution in water: without DMSO pre-treatment.
The test system of data set [3] is Phoma medicaginis. The conditions noted are these: cited from earlier work.
The subject of data set [4] is Tribolium castaneum. The note with it: cited from earlier work.
The test system of data set [5] is Manduca sexta. The note with it: cited from earlier work.
Data set [6] has as its system Hep3B. The note with it: cited from earlier work.
The test system of data set [7] is Trypanosoma cruzi. The conditions noted are these: cited from earlier work.
Data set [8] concerns Biomphalaria glabrata. The note with it: cited from earlier work.
The subject of data set [9] is TNF receptor I. The conditions noted are these: cited from earlier work.
Data set [10] deals with Rhizoctomia solani. The note with it: cited from earlier work.
Data set [11] concerns JTC-26. The note with it: cited from earlier work.
Data set [12] concerns human PLC/PRF/5 hepatoma cells. The note with it: cited from earlier work.
Data set [13] deals with Lymnaea cubensis. The conditions noted are these: cited from earlier work.
For data set [14], the system named is normal skin fibroblast cells. The note with it: cited from earlier work.

As to `C[C@@H]1CC[C@@]2(NC1)O[C@H]1C[C@H]3[C@@H]4CC=C5C[C@@H](O[C@@H]6O[C@H](CO)[C@H](O)[C@H](O[C@@H]7O[C@H](CO)[C@@H](O)[C@H](O)[C@H]7O)[C@H]6O[C@@H]6O[C@@H](C)[C@H](O)[C@@H](O)[C@H]6O)CC[C@]5(C)[C@H]4CC[C@]3(C)[C@H]1[C@@H]2C` [solasonine], in data set [1], the “inhibiting the growth of H441” value is given as “effectively inhibited”. Moreover, in [2], the “direct dissolution in water” value is given as “directly dissolved in water”, the “concentration at which precipitated” value is given as “more than 5 mg/ml” and the dissolution in water result is “could not dissolve in water”.
For the molecule `C[C@@H]1CC[C@@]2(NC1)O[C@H]1C[C@H]3[C@@H]4CC=C5C[C@@H](O[C@@H]6O[C@H](CO)[C@@H](O[C@@H]7O[C@@H](C)[C@H](O)[C@@H](O)[C@H]7O)[C@H](O)[C@H]6O[C@@H]6O[C@@H](C)[C@H](O)[C@@H](O)[C@H]6O)CC[C@]5(C)[C@H]4CC[C@]3(C)[C@H]1[C@@H]2C` [solamargine], the “inhibiting growth of Phoma medicaginis” value in data set [3] was “capable of inhibiting growth”. Further, in data set [4], the “inhibiting growth of Tribolium castaneum” value is listed as “capable of inhibiting growth”. Besides, the “inhibiting growth of Manduca sexta” value in [5] was “capable of inhibiting growth”. Further, the “death of cells by apoptosis pathway” value in data set [6] was “increases death of cells”. The “inhibiting growth of Trypanosoma cruzi” value in data set [7] is listed as “capable of inhibiting growth”. Further, the “inhibiting growth of Biomphalaria glabrata” value in data set [8] is given as “capable of inhibiting growth”. Further, in data set [9], the “gene expression of TNF receptor I” value is “up-regulated”. For the same molecule, the “inhibiting the growth of H441” value in data set [1] is “effectively inhibited”. The “inhibiting growth of Rhizoctomia solani” value in data set [10] is given as “capable of inhibiting growth”. In addition, in data set [2], the “direct dissolution in water” value is listed as “directly dissolved in water”, the “concentration at which precipitated” value was “more than 5 mg/ml” and the dissolution in water result is reported as “could not dissolve in water”. In data set [11], the “growth of JTC-26” value is listed as “inhibits the growth”. Besides, the “growth of human PLC/PRF/5 hepatoma cells” value in [12] is on record as “inhibits the growth”. In addition, the “inhibiting growth of Lymnaea cubensis” value in data set [13] was “capable of inhibiting growth”. Moreover, the “death of cells by apoptosis pathway” value in data set [14] is “increases death of cells”.

The values above are taken from patent EP1508334B1, “Water soluble extract from plant of solanum genus and the preparation process thereof, and pharmaceutical composition containing the water soluble extract” (G & E Herbal Biotechnology Co., Ltd., priority 2003, dated 2005).
